Patent US6469028B1, “Synthesis and use of retinoid compounds having negative hormone and/or anatgonist activities” (Allergan, Inc., priority 1995, dated 2002)
pKd: −log10 of the molar value.

How the values were obtained:
Test in all cases: Ligand binding assay
RARβ = biological target: T1, RARβ (Homo sapiens, UniProt P10826); settings: read-out: Kd (nanomolar) RARβ
T1 sequence (P10826 1-455): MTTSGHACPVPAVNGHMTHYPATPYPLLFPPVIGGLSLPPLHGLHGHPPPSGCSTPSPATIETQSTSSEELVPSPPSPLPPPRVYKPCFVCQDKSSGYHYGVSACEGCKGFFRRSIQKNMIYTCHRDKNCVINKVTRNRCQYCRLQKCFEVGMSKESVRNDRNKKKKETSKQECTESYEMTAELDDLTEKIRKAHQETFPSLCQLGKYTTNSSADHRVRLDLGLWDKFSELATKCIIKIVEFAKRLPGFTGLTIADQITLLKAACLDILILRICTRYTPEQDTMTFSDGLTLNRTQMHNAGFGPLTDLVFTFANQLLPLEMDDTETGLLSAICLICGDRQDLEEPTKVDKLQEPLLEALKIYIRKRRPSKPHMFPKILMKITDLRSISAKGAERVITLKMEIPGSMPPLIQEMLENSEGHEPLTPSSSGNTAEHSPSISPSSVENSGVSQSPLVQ
Source text: (§1) A holoreceptor transactivation assay and a ligand binding assay which measure the antagonist/agonist like activity of the compounds of the invention, or their ability to bind to the several retinoid receptor subtypes, respectively, are described in published PCT Application No. WO93/11755 (particularly on pages 30-33 and 37-41) published on Jun. 24, 1993, the specification of which is also incorporated herein by reference. A description of the holoreceptor transactivation assay is also provided below.
(§2) CV1 cells (5,000 cells/well) were transfected with an RAR reporter plasmid MTV-TREp-LUC (50 ng) along with one of the RAR expression vectors (10 ng) in an automated 96-well format by the calcium phosphate procedure of Heyman et al. Cell 68: 397-406. For RXR-α and RXR-γ transactivation assays, an RXR-responsive reporter plasmid CRBPII-tk-LUC (50 ng) along with the appropriate RXR expression vectors (10 ng) was used substantially as described by Heyman et al. above, and Allegretto et al. J. Biol. Chem. 268: 26625-26633. For RXR-β transactivation assays, an RXR-responsive reporter plasmid CPRE-tk-LUC ([…]) along with RXR-β expression vector ([…]) was used as described in above. These reporters contain DRI elements from human CRBPII and certain DRI elements from promotor, respectively (see Mangelsdorf et al. The Retinoids: Biology Chemistry and Medicine, pp. 319-349, Raven Press Ltd., New York and Heyman et al., cited above). A β-galactosidase (50 ng) expression vector was used as an internal control in the transfections to normalize for variations in transfection efficiency. The cells were transfected in triplicate for 6 hours, followed by incubation with retinoids for 36 hours, and the extracts were assayed for luciferase and […] activities. The detailed experimental procedure for holoreceptor transactivations has been described in Heyman et al. above, and Allegretto et al. cited above. The results obtained in this assay are expressed in EC50 numbers, as they are also in the chimeric receptor transactivation assay. The Heyman et al. Cell 68: 397-406, Allegretto et al. J. Biol. Chem. 268: 26625-26633, and Mangelsdorf et al. The Retinoids: Biology, Chemistry, and Medicine, pp. 319-349, Raven Press Ltd., New York, are expressly incorporated herein by reference. The results of ligand binding assay are expressed in Kd numbers. (See Cheng et al. Biochemical Pharmacology 22: 3099-3108, expressly incorporated herein by reference.) […]

RARα = biological target: T2, RARα (Homo sapiens, UniProt P10276); set-up: expressed in transfected cells; host or cells: CV1 cells; settings: read-out: Kd (nanomolar) RARα
T2 sequence (P10276 1-462): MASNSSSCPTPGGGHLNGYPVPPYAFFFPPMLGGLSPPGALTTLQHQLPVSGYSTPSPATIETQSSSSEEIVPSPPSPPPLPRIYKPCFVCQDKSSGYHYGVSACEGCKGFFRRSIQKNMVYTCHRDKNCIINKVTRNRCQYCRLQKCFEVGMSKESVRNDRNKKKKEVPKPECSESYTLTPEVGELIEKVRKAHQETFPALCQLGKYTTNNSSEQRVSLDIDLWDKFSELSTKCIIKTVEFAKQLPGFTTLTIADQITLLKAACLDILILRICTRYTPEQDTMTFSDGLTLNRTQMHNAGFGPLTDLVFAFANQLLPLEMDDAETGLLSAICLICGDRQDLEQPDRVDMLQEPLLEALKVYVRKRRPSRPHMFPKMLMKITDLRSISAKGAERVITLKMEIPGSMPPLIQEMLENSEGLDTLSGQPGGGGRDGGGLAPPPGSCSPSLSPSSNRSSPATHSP
Source text: as §1, §2

RARγ = biological target: T3, RARγ (Homo sapiens, UniProt P13631); set-up: expressed in transfected cells; host or cells: CV1 cells; settings: read-out: Kd (nanomolar) RARγ
T3 sequence (P13631 1-454): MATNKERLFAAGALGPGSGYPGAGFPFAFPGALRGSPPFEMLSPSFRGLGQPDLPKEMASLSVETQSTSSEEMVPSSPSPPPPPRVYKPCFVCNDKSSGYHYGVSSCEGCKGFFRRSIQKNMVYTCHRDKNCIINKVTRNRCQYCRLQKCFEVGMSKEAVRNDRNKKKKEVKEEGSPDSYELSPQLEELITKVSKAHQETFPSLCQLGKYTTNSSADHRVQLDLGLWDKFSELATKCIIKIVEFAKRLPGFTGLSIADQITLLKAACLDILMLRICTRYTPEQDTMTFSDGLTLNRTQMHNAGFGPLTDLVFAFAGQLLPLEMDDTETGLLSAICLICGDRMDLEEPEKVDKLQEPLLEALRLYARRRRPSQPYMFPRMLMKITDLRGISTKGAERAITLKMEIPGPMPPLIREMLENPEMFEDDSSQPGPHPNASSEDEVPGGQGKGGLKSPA
Source text: as §1, §2

## Cc1ccc(C2=CCC(C)(C)c3ccc(C#Cc4ccc(C(=O)O)cc4)cc32)cn1 [Compound 18, 4-[(5,6-Dihydro-5,5-dimethyl-8-(2-methyl-5-pyridyl)-2-naphthalenyl)ethynyl]benzoic acid]
RARβ
  pKd: 7.96
RARα
  pKd: 7.62
RARγ
  pKd: 7.62

## CC1(C)CC=C(c2ccccn2)c2cc(C#Cc3ccc(C(=O)O)cc3)ccc21 [Compound 19, 4-[(5,6-Dihydro-5,5-dimethyl-8-(2-pyridyl)-2-naphthalenyl)ethynyl]benzoic acid]
RARβ
  pKd: 6.68
RARα
  pKd: 6.25
RARγ
  pKd: 6.18

## Cc1cccc(C2=CCC(C)(C)c3ccc(C#Cc4ccc(C(=O)O)cc4)cc32)c1 [Compound 20, 4-[(5,6-Dihydro-5,5-dimethyl-8-(3-methylphenyl)-2-naphthalenyl)ethynyl]benzoic acid]
RARβ
  pKd: 7.66
RARα
  pKd: 6.89
RARγ
  pKd: 7.47

## CCc1ccc(C2=CCC(C)(C)c3ccc(C#Cc4ccc(C(=O)O)cc4)cc32)cc1 [Compound 21, 4-[(5,6-Dihydro-5,5-dimethyl-8-(4-ethylphenyl)-2-naphthalenyl)ethynyl]benzoic acid]
RARβ
  pKd: 8.05
RARα
  pKd: 7.80
RARγ
  pKd: 7.89

## COc1ccc(C2=CCC(C)(C)c3ccc(C#Cc4ccc(C(=O)O)cc4)cc32)cc1 [Compound 22, 4-[(5,6-Dihydro-5,5-dimethyl-8-(4-methoxyphenyl)-2-naphthalenyl)ethynyl]benzoic acid]
RARβ
  pKd: 7.77
RARα
  pKd: 7.62
RARγ
  pKd: 7.57

## Cc1cc(C)cc(C2=CCC(C)(C)c3ccc(C#Cc4ccc(C(=O)O)cc4)cc32)c1 [Compound 24, 4-[(5 6-Dihydro-5,5-dimethyl-8-(3,5-dimethylphenyl)-2-naphthalenyl)ethynyl]benzoic acid]
RARβ
  pKd: 6.63
RARα
  pKd: 6.16
RARγ
  pKd: 6.54

## CC1(C)CC=C(c2cccnc2)c2cc(C#Cc3ccc(C(=O)O)cc3)ccc21 [Compound 26, 4-[(5,6-Dihydro-5,5-dimethyl-8-(3-pyridyl)-2-naphthalenyl)ethynyl]benzoic acid]
RARβ
  pKd: 7.51
RARα
  pKd: 7.40
RARγ
  pKd: 7.44

## Cc1ccccc1C1=CCC(C)(C)c2ccc(C#Cc3ccc(C(=O)O)cc3)cc21 [Compound 27, 4-[(5,6-Dihydro-5,5-dimethyl-8-(2-methylphenyl)-2-naphthalenyl)ethynyl]benzoic acid]
RARβ
  pKd: 7.85
RARα
  pKd: 7.16
RARγ
  pKd: 7.59

## CC1(C)CC=C(c2cccc(O)c2)c2cc(C#Cc3ccc(C(=O)O)cc3)ccc21 [Compound 28, 4-[(5,6-Dihydro5,5-dimethyl-8-(3-hydroxyphenyl)-2-naphthalenyl)ethynyl]benzoic acid]
RARβ
  pKd: 7.11
RARα
  pKd: 6.17
RARγ
  pKd: 6.63

## CC1(C)CC=C(c2ccc(O)cc2)c2cc(C#Cc3ccc(C(=O)O)cc3)ccc21 [Compound 29, 4-[(5,6-Dihydro-5,5-dimethyl-8-(4-hydroxyphenyl)-2-naphthalenyl)ethynyl]benzoic acid]
RARβ
  pKd: 7.32
RARα
  pKd: 6.63
RARγ
  pKd: 7.10

## Cc1cnc(C2=CCC(C)(C)c3ccc(C#Cc4ccc(C(=O)O)cc4)cc32)s1 [Compound 30, 4-[(5,6-Dihydro-5,5-dimethyl-8-(5-methylthiazol-2-yl)-2-naphthalenyl)ethynyl]benzoic acid]
RARβ
  pKd: 6.85
RARα
  pKd: 6.17
RARγ
  pKd: 6.66

## Cc1csc(C2=CCC(C)(C)c3ccc(C#Cc4ccc(C(=O)O)cc4)cc32)n1 [Compound 31, 4-[(5,6-Dihydro-5,5-dimethyl-8-(4-methylthiazol-2-yl)-2-naphthalenyl)ethynyl]benzoic acid]
RARβ
  pKd: 7.28
RARα
  pKd: 6.43
RARγ
  pKd: 7.00

## Cc1nc(C2=CCC(C)(C)c3ccc(C#Cc4ccc(C(=O)O)cc4)cc32)sc1C [Compound 32]
RARβ
  pKd: 7.05
RARγ
  pKd: 6.77

## Cc1ccc(C2=CCC(C)(C)c3ccc(C#Cc4ccc(C(=O)O)cc4)cc32)s1 [Compound 34, 4-[(5,6-Dihydro-5,5-dimethyl-8-(5-methyl-2-thienyl)-2-naphthalenyl)ethynyl]benzoic acid]
RARβ
  pKd: 7.52
RARα
  pKd: 7.28
RARγ
  pKd: 7.77

## Cc1ccc(C2=CCC(C)(C)c3ccc(C(=O)Nc4ccc(C(=O)O)cc4)cc32)cc1 [Compound 36, 4-[[(5,6-Dihydro-5,5-dimethyl-8-(4-methylphenyl)-2-naphthalenyl)carbonyl]amino]-benzoic acid]
RARβ
  pKd: 6.26
RARα
  pKd: 7.89

## Cc1ccc(C2=CCC(C)(C)c3ccc(C(=O)Oc4ccc(C(=O)O)cc4)cc32)cc1 [Compound 39, 4-[[(5,6-Dihydro-5,5-dimethyl-8-(4-methylphenyl)-2-naphthalenyl)carbonyl]oxy]-benzoic acid]
RARβ
  pKd: 7.42
RARα
  pKd: 7.17
RARγ
  pKd: 6.95

## Cc1ccc(C2=CCC(C)(C)c3ccc(C(=O)Nc4ccc(C(=O)O)c(F)c4)cc32)cc1 [Compound 41, 2-Fluoro-4-[[(5,6-dihydro-5,5-dimethyl-8-(4methylphenyl)-2-naphthalenyl)carbonyl]amino]-benzoic acid]
RARβ
  pKd: 6.31
RARα
  pKd: 8.29
RARγ
  pKd: 6.14

## Cc1ccc(C2=CCC(C)(C)c3ccc(/C=C/c4ccc(C(=O)O)cc4)cc32)cc1 [Compound 45]
RARβ
  pKd: 8.55
RARα
  pKd: 7.92
RARγ
  pKd: 7.77

## Cc1ccc(C2=CCC(C)(C)c3ccc(N=Nc4ccc(C(=O)O)cc4)cc32)cc1 [Compound 46b, 4-[(5,6-dihydro-5,5-dimethyl-8-(4-methylphenyl)-2-naphthalenyl)azo]-benzoic acid]
RARβ
  pKd: 8.43
RARα
  pKd: 6.60
RARγ
  pKd: 8.24

## CC(/C=C/C=C(\C)c1ccc2c(c1)C(c1ccc(C)cc1)=CCC2(C)C)=C\C(=O)O [Compound 52, (E,E,E)-3-methyl-7-(5,6-dihydro-5,5-dimethyl-8-(4-methylphenyl)-2-naphthalenyl)-2,4,6-octatrienoic acid]
RARβ
  pKd: 7.20
RARα
  pKd: 7.22
RARγ
  pKd: 7.25

## Cc1ccc(C2=CCC(C)(C)c3ccc(C(=S)Nc4ccc(C(=O)O)c(F)c4)cc32)cc1 [Compound 63, 2-fluoro-4-[[(5,6-dihydro-5,5-dimethyl-8-(4-methylphenyl)-2-naphthalenyl)thiocarbonyl]amino]-benzoic acid]
RARβ
  pKd: 5.49
RARα
  pKd: 6.88
